Inconclusive results and toxic doses are left out. Rule as the data show it: active = T/C of 150% or more; inactive = T/C below 125%.
Tested on: L1210 leukemia ip in BDF1 mice, survival T/C
Assay: NCI In Vivo Anticancer Drug Screen. Data for tumor model L1210 Leukemia (intraperitoneal) in B6D2F1 (BDF1) mice
Details: endpoint: mean survival time, higher = longer survival
In short: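 Read-out is survival time, reported as the treated-group measurement over the vehicle-control measurement.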

[1] = dose: 100.0 mg/kg/injection, schedule: Q04DX003 (ip), vehicle: saline with Tween-80
[2] = dose: 200.0 mg/kg/injection, schedule: Q04DX003 (ip), vehicle: saline with Tween-80
[3] = dose: 400.0 mg/kg/injection, schedule: Q04DX003 (ip), vehicle: saline with Tween-80
[4] = dose: 100.0 mg/kg/injection, schedule: Q01DX009 (ip), vehicle: saline with Tween-80
[5] = dose: 200.0 mg/kg/injection, schedule: Q01DX009 (ip), vehicle: saline with Tween-80
[6] = dose: 400.0 mg/kg/injection, schedule: Q01DX009 (ip), vehicle: saline with Tween-80
[7] = dose: 75.0 mg/kg/injection, schedule: Q01DX001 (ip), vehicle: saline
[8] = dose: 150.0 mg/kg/injection, schedule: Q01DX001 (ip), vehicle: saline
[9] = dose: 50.0 mg/kg/injection, schedule: Q01DX009 (ip), vehicle: saline with Tween-80
[10] = dose: 100.0 mg/kg/injection, schedule: Q01DX009 (ip), vehicle: Klucel (hydroxypropylcellulose) (HPC)
[11] = dose: 200.0 mg/kg/injection, schedule: Q01DX009 (ip), vehicle: Klucel (hydroxypropylcellulose) (HPC)
[12] = dose: 400.0 mg/kg/injection, schedule: Q01DX009 (ip), vehicle: Klucel (hydroxypropylcellulose) (HPC)
[13] = dose: 100.0 mg/kg/injection, schedule: Q04DX002 (ip), vehicle: Klucel (hydroxypropylcellulose) (HPC)
[14] = dose: 200.0 mg/kg/injection, schedule: Q04DX002 (ip), vehicle: Klucel (hydroxypropylcellulose) (HPC)
[15] = dose: 400.0 mg/kg/injection, schedule: Q04DX002 (ip), vehicle: Klucel (hydroxypropylcellulose) (HPC)
[16] = dose: 25.0 mg/kg/injection, schedule: Q04DX003 (ip), vehicle: Klucel (hydroxypropylcellulose) (HPC)
[17] = dose: 50.0 mg/kg/injection, schedule: Q04DX003 (ip), vehicle: Klucel (hydroxypropylcellulose) (HPC)
[18] = dose: 100.0 mg/kg/injection, schedule: Q04DX003 (ip), vehicle: Klucel (hydroxypropylcellulose) (HPC)
[19] = dose: 100.0 mg/kg/injection, schedule: Q01DX001 (ip), vehicle: Klucel (hydroxypropylcellulose) (HPC)
[20] = dose: 200.0 mg/kg/injection, schedule: Q01DX001 (ip), vehicle: Klucel (hydroxypropylcellulose) (HPC)
[21] = dose: 200.0 mg/kg/injection, schedule: Q04DX003 (ip), vehicle: Klucel (hydroxypropylcellulose) (HPC)
[22] = dose: 400.0 mg/kg/injection, schedule: Q01DX001 (ip), vehicle: Klucel (hydroxypropylcellulose) (HPC)
[23] = dose: 400.0 mg/kg/injection, schedule: Q04DX003 (ip), vehicle: Klucel (hydroxypropylcellulose) (HPC)

Measured: T/C

O=S1(=O)CCC(NCCSS(=O)(=O)O)CC1
inactive: [1] 96 % of control | [2] 96 % of control | [3] 104 % of control

O=C(CC(NC(=O)OCc1ccccc1)c1nn[nH]n1)OCc1ccccc1 (stereo not given)
inactive: [4] 101 % of control | [5] 103 % of control | [6] 90 % of control

CCOC(=O)/C(C#N)=C(\C)CCc1ccccc1
inactive: [7] 104 % of control | [8] 101 % of control | dose: 300.0 mg/kg/injection, schedule: Q01DX001 (ip), vehicle: saline 101 % of control

C=CCC(C)(C)/C=N/N
inactive: dose: 37.5 mg/kg/injection, schedule: Q04DX003 (ip), vehicle: saline 101 % of control | dose: 75.0 mg/kg/injection, schedule: Q04DX003 (ip), vehicle: saline 102 % of control | dose: 150.0 mg/kg/injection, schedule: Q04DX003 (ip), vehicle: saline 98 % of control

O=S(=O)(C1CCCCC1)N1N=NC2CCCCC21 (stereo not given)
inactive: [9] 93 % of control | [4] 90 % of control

COc1ccc(/C=N/NC(=O)CNC(=O)c2ccccc2)cc1
inactive: dose: 25.0 mg/kg/injection, schedule: Q01DX009 (ip), vehicle: saline with Tween-80 93 % of control | [9] 95 % of control | [4] 91 % of control

c1coc(NC2CCCCC2)n1
inactive: [4] 100 % of control | [5] 92 % of control | [6] 86 % of control

c1ccc2c(c1)ccc1ccccc12
inactive: [1] 100 % of control | [2] 92 % of control | [3] 92 % of control

O=C1OCC(Cl)=C1Cl
inactive: dose: 6.25 mg/kg/injection, schedule: Q04DX003 (ip), vehicle: saline 101 % of control | dose: 12.5 mg/kg/injection, schedule: Q04DX003 (ip), vehicle: saline 101 % of control | dose: 25.0 mg/kg/injection, schedule: Q04DX003 (ip), vehicle: saline 103 % of control

CC(C(OC(=O)Nc1ccc(Cl)c(Cl)c1)c1ccc(F)cc1)C(O)(C(F)(F)F)C(F)(F)F (stereo not given)
inactive: [10] 93 % of control | [11] 93 % of control | [12] 91 % of control

CCOC(=O)C(C(=O)Nc1ccccc1)=S(C)C
inactive: [13] 94 % of control | [14] 106 % of control | [15] 116 % of control

COc1cccc(NC(=O)Nc2ccccc2Cl)c1
inactive: dose: 100.0 mg/kg/injection, schedule: Q01DX009 (ip), vehicle: gum acacia 93 % of control | dose: 100.0 mg/kg/injection, schedule: Q04DX003 (ip), vehicle: gum acacia 92 % of control | dose: 200.0 mg/kg/injection, schedule: Q01DX009 (ip), vehicle: gum acacia 98 % of control | dose: 200.0 mg/kg/injection, schedule: Q04DX003 (ip), vehicle: gum acacia 90 % of control | dose: 400.0 mg/kg/injection, schedule: Q01DX009 (ip), vehicle: gum acacia 96 % of control | dose: 400.0 mg/kg/injection, schedule: Q04DX003 (ip), vehicle: gum acacia 94 % of control

CCOP(=O)(OCC)Oc1ccc([N+](=O)[O-])c(CC)c1
inactive: dose: 5.0 mg/kg/injection, schedule: Q01DX001 (ip), vehicle: saline 100 % of control | dose: 10.0 mg/kg/injection, schedule: Q01DX001 (ip), vehicle: saline 100 % of control

O=S(=O)(O)c1ccc(-c2nc(-c3ccccc3)c(-c3ccccc3)[nH]2)cc1
inactive: dose: 100.0 mg/kg/injection, schedule: Q01DX009 (ip), vehicle: saline 102 % of control | dose: 200.0 mg/kg/injection, schedule: Q01DX009 (ip), vehicle: saline 102 % of control | dose: 400.0 mg/kg/injection, schedule: Q01DX009 (ip), vehicle: saline 101 % of control

NN=C(NN)NN
inactive: dose: 100.0 mg/kg/injection, schedule: Q04DX002 (ip), vehicle: saline 98 % of control | dose: 200.0 mg/kg/injection, schedule: Q04DX002 (ip), vehicle: saline 104 % of control | dose: 400.0 mg/kg/injection, schedule: Q04DX002 (ip), vehicle: saline 104 % of control

CCCNC(=O)Oc1ccc(C(=O)OCC)cc1
inactive: [4] 93 % of control | [5] 98 % of control | [6] 94 % of control

O=C1c2cc([N+](=O)[O-])ccc2-c2cc(Cl)ccc21
inactive: [1] 97 % of control | [2] 97 % of control | [3] 97 % of control

COc1ccc(C)cc1NC(=O)Nc1cc([N+](=O)[O-])ccc1F
inactive: [13] 87 % of control | [14] 104 % of control | [15] 108 % of control

COc1ccc2c(c1)C1(C)CCCC(C)(C(N)=O)C1CC2 (stereo not given)
inactive: dose: 100.0 mg/kg/injection, schedule: Q01DX001 (ip), vehicle: carboxymethylcellulose (CMC) 101 % of control | dose: 200.0 mg/kg/injection, schedule: Q01DX001 (ip), vehicle: carboxymethylcellulose (CMC) 93 % of control | dose: 400.0 mg/kg/injection, schedule: Q01DX001 (ip), vehicle: carboxymethylcellulose (CMC) 98 % of control

CC(=O)NCCC(C)C
inactive: dose: 100.0 mg/kg/injection, schedule: Q04DX003 (ip), vehicle: saline 98 % of control | dose: 200.0 mg/kg/injection, schedule: Q04DX003 (ip), vehicle: saline 98 % of control | dose: 400.0 mg/kg/injection, schedule: Q04DX003 (ip), vehicle: saline 95 % of control

CNC(C)(C)C
inactive: [1] 93 % of control | [2] 93 % of control | [3] 86 % of control

CCC(=O)Nc1cccc(OC(=O)NC2CCCCC2)c1
inactive: [1] 102 % of control | [2] 98 % of control | [3] 91 % of control

CNC(=S)N/N=C(/C)CCc1c(C)nn(C(=S)NC)c1C
inactive: dose: 5.0 mg/kg/injection, schedule: Q01DX001 (ip), vehicle: carboxymethylcellulose (CMC) 94 % of control | dose: 10.0 mg/kg/injection, schedule: Q01DX001 (ip), vehicle: carboxymethylcellulose (CMC) 91 % of control | dose: 12.5 mg/kg/injection, schedule: Q01DX009 (ip), vehicle: Klucel (hydroxypropylcellulose) (HPC) 103 % of control | dose: 20.0 mg/kg/injection, schedule: Q01DX001 (ip), vehicle: carboxymethylcellulose (CMC) 89 % of control | dose: 25.0 mg/kg/injection, schedule: Q01DX009 (ip), vehicle: Klucel (hydroxypropylcellulose) (HPC) 100 % of control | [16] 106 % of control | dose: 40.0 mg/kg/injection, schedule: Q01DX001 (ip), vehicle: carboxymethylcellulose (CMC) 89 % of control | dose: 50.0 mg/kg/injection, schedule: Q01DX009 (ip), vehicle: Klucel (hydroxypropylcellulose) (HPC) 92 % of control | [17] 100 % of control | dose: 80.0 mg/kg/injection, schedule: Q01DX001 (ip), vehicle: carboxymethylcellulose (CMC) 96 % of control | [18] 92 % of control

CC(NC(=O)NCCCl)C1CC1 (stereo not given)
inactive: [19] 106 % of control | [18] 97 % of control | [20] 103 % of control | [21] 100 % of control | [22] 103 % of control | [23] 90 % of control

COc1ccc(NC(=O)Oc2ccc(OC)cc2)cc1
inactive: [10] 103 % of control | [18] 97 % of control | [11] 95 % of control | [21] 89 % of control | [12] 89 % of control | [23] 91 % of control

CN1C(=O)C2C3C=CC(C3)C2C1=O (stereo not given)
inactive: [19] 97 % of control | [10] 101 % of control | [20] 101 % of control | [11] 100 % of control | [22] 106 % of control | [12] 96 % of control

CCOC(=O)c1[nH]c(COC(C)=O)c(CCC(=O)O)c1C
inactive: [16] 101 % of control | [17] 95 % of control | [19] 101 % of control | [18] 98 % of control | [20] 93 % of control | [22] 88 % of control

CC1=N/C(=N\c2nc3ccccc3[nH]2)NC(=O)CC1
inactive: [7] 101 % of control | [8] 93 % of control

CC(=O)OC(CC[P+](c1ccccc1)(c1ccccc1)c1ccccc1)(C(=O)c1ccccc1)c1ccccc1 (stereo not given)
inactive: dose: 100.0 mg/kg/injection, schedule: Q01DX001 (ip), vehicle: saline with Tween-80 95 % of control

— PubChem BioAssay AID248 (DTP/NCI, 2004)
